{
  "source": "patent US20250059232A1",
  "about": "“PENTAPEPTIDE AND USE THEREOF” (ENSOL BIOSCIENCES INC., priority 2021, published 2025)",
  "key": {"PC3": {"test_system": "PC3", "assay": "PC3 cell viability (CCK-8) in NK92 co-culture with anti-PD-L1", "assay_type": "cell-based, human", "conditions": "300 uM with 10 ug/ml anti-PD-L1, 24/48/72 hours of co-culturing", "method": "The experiment described below was performed to evaluate the tumor cell proliferation inhibitory effect of the combination treatment of the peptide of Example 1 and the anti-PD-L1, which is an immune checkpoint inhibitor. First, 5×10^3 cells of a human prostate cancer cell line PC3, 5×10^3 cells of a human lung cancer cell line A549 (Korean Cell Line Bank), and 1×10^4 cells of a human triple negative breast cancer cell line MDA-MB-231 (ATCC) were seeded in 96 wells and stabilized by culturing overnight. Then, the seeded cells were treated with 10 ug/ml of the anti-PD-L1 and 300 uM of the peptide of Example 1, for each condition while NK92 cells for 5×10^3 cells of each of the PC3 cell line and the MDA-MB-231 cell line and 2.5×10^3 cells of the A549 cell line were additionally seeded. After 24/48/72 hours of co-culturing (for PC3 and MDA-MB-231) and 24/48 hours of co-culturing (for A549), the NK92 cells were removed by washing, and the cancer cell viability was measured by CCK-8 addition. FIG. 15 is a graph illustrating the changes in PC3 cell viability over culturing time for each test group in an anticancer effect evaluation test. In FIG. 15, the x-axis represents culturing time and the y-axis represents cell viability (%). FIG. 16 is a graph illustrating the changes in A549 cell viability over culturing time for each test group in an anticancer effect evaluation test. […]"}, "[1]": {"assay": "4-week repeated subcutaneous toxicity test in rats", "assay_type": "in vivo, rat", "method": "Ten female and male rats were administered the pentapeptide of Example 1 subcutaneously at doses of 500, 1000, 2000 mg/kg daily for 4 weeks to investigate toxicity, and a safety evaluation test was performed. Specifically, general symptom observation, body weight measurement, feed consumption measurement, ophthalmological examination, and urinary examination were performed. After the end of the observation period, hematology and clinical biochemistry test, organ weight measurement, visual examination at autopsy, and histopathological examination were performed. […] Synthesizing the results described above, the no observed adverse effect level (NOEAL) for female and male was determined to be greater than or equal to 2,000 mg/kg/day when the pentapeptide of Example 1 was administered repeatedly subcutaneously to the rats for 4 weeks."}, "[2]": {"assay": "Stability test: HPLC relative purity of peptide dissolved in buffer, by pH and temperature", "assay_type": "physicochemical", "method": "For Example 1 and Comparative Example 1, stability tests according to pH for each temperature were performed.\nStability tests for each peptide were performed by liquid chromatography purity analysis for each temperature and each pH according to analysis timing (initial, 24 hours, 130 hours). […] Samples were analyzed by injecting 20 ul of each sample with an auto-sample injector, and the analysis column was Inspire C18 (4.6×250 mm, […], 12 nm) manufactured by Dikma. The analysis temperature was 40° C., and a UV wavelength of 215 nm was used.\nOn the basis of the HPLC analysis results, relative purity was calculated for Comparative Example 1 and Example 1 for each storage condition. The relative purity is the percentage of measured purity changing according to the storage period, with the initial purity being set to 100% for each sample. FIGS. 1 and 2 are graphs showing the results of stability tests for Example and Comparative Example stored at a temperature of 25° C., in which FIG. 1 is a graph of a test result for 24 hours of storage, and FIG. 2 is a graph of a test result for 130 hours of storage. FIGS. 3 and 4 are graphs showing the results of stability tests for Example and Comparative Example stored at 40° C., in which FIG. 3 is a graph of a test result for 24 hours of storage, and FIG. 4 is a graph of a test result for 130 hours of storage. In each graph, the x-axis represents the test group by pH and the y-axis represents the relative purity […]."}, "EL4": {"test_system": "EL4", "assay": "EL4 cell viability (CCK-8) with doxorubicin", "assay_type": "cell-based, mouse", "conditions": "300 uM with doxorubicin 20 nM; 24 hours; p<0.05", "method": "In order to investigate the cell viability by the combined administration of doxorubicin and the peptide of Example 1 compared to the group administered with only doxorubicin, which is an anticancer chemotherapeutic agent, experiments described below were conducted. 8×10^3 Cells of the mouse lymphoma cell line EL4 (ATCC) were seeded in 96 wells, which then were treated with doxorubicin 20 nM and peptide 300 uM of Example 1 for each condition. After 24 hours of culturing, the cell viability of the EL4 cells was measured by CCK-8 addition. FIG. 11 is a graph illustrating the changes in EL4 cell viability over culturing time in an anticancer effect evaluation test. In FIG. 11, the x-axis represents culturing time and the y-axis represents cell viability (%)."}, "[3]": {"conditions": "500, 1000, 2000 mg/kg subcutaneous daily for 4 weeks"}},
  "data": [
    {"substance": "Ac-QLHLD-OH [Example 1, acetyl-QLHLD]", "values": [
      {"measurement": "Cancer cell viability compared to the group treated with only anti-PD-L1", "setting": "PC3", "value": "significant decrease in cancer cell viability"},
      {"measurement": "Adverse findings related to the pentapeptide", "setting": "[1]; [3]", "value": "no adverse findings"},
      {"measurement": "Deaths", "setting": "[1]; [3]", "value": "no deaths occurred"},
      {"measurement": "No observed adverse effect level (NOEAL)", "setting": "[1]; female and male, subcutaneous, daily for 4 weeks", "value": "greater than or equal to 2,000 mg/kg/day"},
      {"measurement": "Stability (summary in words)", "setting": "[2]; liquid state, pH 2-9, 25 and 40° C., up to 130 hours", "value": "extremely stable regardless of storage conditions"},
      {"measurement": "Relative purity", "setting": "[2]; pH 2, 25 ± 2° C., RH 60 ± 5%, storage 0 hours (initial set to 100%)", "value": 100.0, "unit": "%"},
      {"measurement": "Relative purity", "setting": "[2]; pH 2, 25 ± 2° C., RH 60 ± 5%, storage 24 hours", "value": 99.7, "unit": "%"},
      {"measurement": "Relative purity", "setting": "[2]; pH 2, 25 ± 2° C., RH 60 ± 5%, storage 130 hours", "value": 99.9, "unit": "%"},
      {"measurement": "Relative purity", "setting": "[2]; pH 2, 40 ± 2° C., RH 75 ± 5%, storage 0 hours (initial set to 100%)", "value": 100.0, "unit": "%"},
      {"measurement": "Relative purity", "setting": "[2]; pH 2, 40 ± 2° C., RH 75 ± 5%, storage 24 hours", "value": 99.4, "unit": "%"},
      {"measurement": "Relative purity", "setting": "[2]; pH 2, 40 ± 2° C., RH 75 ± 5%, storage 130 hours", "value": 95.8, "unit": "%"},
      {"measurement": "Relative purity", "setting": "[2]; pH 5, 25 ± 2° C., RH 60 ± 5%, storage 0 hours (initial set to 100%)", "value": 100.0, "unit": "%"},
      {"measurement": "Relative purity", "setting": "[2]; pH 5, 25 ± 2° C., RH 60 ± 5%, storage 24 hours", "value": 100.0, "unit": "%"},
      {"measurement": "Relative purity", "setting": "[2]; pH 5, 25 ± 2° C., RH 60 ± 5%, storage 130 hours", "value": 100.0, "unit": "%"},
      {"measurement": "Relative purity", "setting": "[2]; pH 5, 40 ± 2° C., RH 75 ± 5%, storage 0 hours (initial set to 100%)", "value": 100.0, "unit": "%"},
      {"measurement": "Relative purity", "setting": "[2]; pH 5, 40 ± 2° C., RH 75 ± 5%, storage 24 hours", "value": 100.0, "unit": "%"},
      {"measurement": "Relative purity", "setting": "[2]; pH 5, 40 ± 2° C., RH 75 ± 5%, storage 130 hours", "value": 100.0, "unit": "%"},
      {"measurement": "Relative purity", "setting": "[2]; pH 7, 25 ± 2° C., RH 60 ± 5%, storage 0 hours (initial set to 100%)", "value": 100.0, "unit": "%"},
      {"measurement": "Relative purity", "setting": "[2]; pH 7, 25 ± 2° C., RH 60 ± 5%, storage 24 hours", "value": 100.0, "unit": "%"},
      {"measurement": "Relative purity", "setting": "[2]; pH 7, 25 ± 2° C., RH 60 ± 5%, storage 130 hours", "value": 100.0, "unit": "%"},
      {"measurement": "Relative purity", "setting": "[2]; pH 7, 40 ± 2° C., RH 75 ± 5%, storage 0 hours (initial set to 100%)", "value": 100.0, "unit": "%"},
      {"measurement": "Relative purity", "setting": "[2]; pH 7, 40 ± 2° C., RH 75 ± 5%, storage 24 hours", "value": 100.0, "unit": "%"},
      {"measurement": "Relative purity", "setting": "[2]; pH 7, 40 ± 2° C., RH 75 ± 5%, storage 130 hours", "value": 100.0, "unit": "%"},
      {"measurement": "Relative purity", "setting": "[2]; pH 9, 25 ± 2° C., RH 60 ± 5%, storage 0 hours (initial set to 100%)", "value": 100.0, "unit": "%"},
      {"measurement": "Relative purity", "setting": "[2]; pH 9, 25 ± 2° C., RH 60 ± 5%, storage 24 hours", "value": 100.0, "unit": "%"},
      {"measurement": "Relative purity", "setting": "[2]; pH 9, 25 ± 2° C., RH 60 ± 5%, storage 130 hours", "value": 100.0, "unit": "%"},
      {"measurement": "Relative purity", "setting": "[2]; pH 9, 40 ± 2° C., RH 75 ± 5%, storage 0 hours (initial set to 100%)", "value": 100.0, "unit": "%"},
      {"measurement": "Relative purity", "setting": "[2]; pH 9, 40 ± 2° C., RH 75 ± 5%, storage 24 hours", "value": 99.9, "unit": "%"},
      {"measurement": "Relative purity", "setting": "[2]; pH 9, 40 ± 2° C., RH 75 ± 5%, storage 130 hours", "value": 99.8, "unit": "%"},
      {"measurement": "Cancer cell viability compared to the group treated with only doxorubicin", "setting": "EL4", "value": "significant decrease in cancer cell viability"}
    ]}
  ]
}
